Assay results taken from EP2966448B1, “METHOD FOR THE PREDICTION OR PROGNOSIS OF THE RESPONSE OF A HUMAN SUBJECT SUFFERING FROM CANCER TO TREATMENT WITH AN ANTAGONIST OF THE NK1 RECEPTOR” (priority 2013, dated 2014).
Like-named read-outs stand apart in the source and are kept apart here.

Key:
[1] = system: Lung carcinoma (non small cell lung carcinoma); assay: Inhibition of primary tumor cell cultures vs Kras mutation (Example 2); type: cell-based, human; conditions: Lung carcinoma (non small cell lung carcinoma), 100 micromolar
Description: (§1) To obtain tumor cells from human primary tumors we used the method described in De Bari et al. (De Bari et al. 2001). Briefly, small pieces of the tumors were digested into a hyaluronidase solution (Sigma-Aldrich, USA) at a concentration of 1 mg/ml during 15 minutes at 37°C, and then they were treated with 6 mg/ml of collagenase type IV (Invitrogen) during 2 hours at 37°C. Consecutively, cells were washed, and resuspended in the DMEM culture medium with high concentration of glucose (Dulbecco's Modified Eagle's Medium, Invitrogen) supplemented with 1% of antibiotics-antimycotics (Invitrogen) and with 1% of sodium pyruvate (Invitrogen), and the cells were seeded in culture slides at a concentration of 10.000 cells per square centimeter. When cells reached confluence, the adherent cells were separated using sterile trypsin at 0,5% (Invitrogen) and they were used among passages 3 and 9. For the assays shown next, tumor cells were seeded on slides at a concentration of 25.000 cells per well. A total of 6 wells containing the tumor cells were used as survival control. […] All the cultures were kept during 48 hours and later on recollected for their analysis.
(§2) In each case the presence or not of mutations in K-ras gene was determined.
(§3) To determine the existence of mutations in the K-ras gene DNA from cancer tumor cells was extracted from samples obtained from the different cancer tumor cells, using DNA extraction kits from Takara (Madison, WI, US) or Ambion (Huntingdon, Cambridgeshire, United Kingdom), following the manufacturer's instructions, and as it has been previously published (Di Fiore F, et al. 2007). Consecutively it was analyzed by sequencing the exon 2 of the KRAS gene, , by means of PCR amplification from previously extracted cancer tumor DNA, using the following sense primer (SEQ ID NO. 15): 5'-[sequence]-3' and anti-sense primer (SEQ ID NO. 16): 5'-[sequence]-3'. After the purification using the Qiagen extraction kit, the PCR products were sequenced using the Big Dye Terminator Kit V3.1 (Applied Biosystems, Foster City, CA, U.S.) and an ABI Prism 377 or 3100 DNA sequencer (Applied Biosystems). The presence of a heterozygous mutation in the KRAS gene in cancer tumor cells of the cultures was defined as the appearance of a mutant peak of a height of at least a third of the wild type. All the sequence analysis were executed at least twice in two independent PCR.
(§4) The antibody against NK1 receptor (Table 16) was used at 1/50 concentration. The percentages of inhibition are expressed in percentage of variation in relation to control ± standard deviation.

[2] = system: Thyroid carcinoma (follicular carcinoma); assay: as above; type: cell-based, human; conditions: Thyroid carcinoma (follicular carcinoma), 100 micromolar
Description: as §1, §2, §3, §4

Burkitt Lymphoma [3] = assay: Inhibition of primary tumor cell cultures (48 hours) vs NK1 receptor immunostaining (Example 1); type: cell-based; conditions: Homo sapiens, 1 micromolar, read-out: Percentage of inhibition of cell cultures
Description: (§5) Cell cultures. To obtain tumor cells from human primary tumors we used the method described in De Bari et al. (De Bari et al. 2001). Briefly, small pieces of the tumors were digested into a hyaluronidase solution (Sigma-Aldrich, USA) at a concentration of 1 mg/ml during 15 minutes at 37°C, and then they were treated with 6 mg/ml of collagenase type IV (Invitrogen) during 2 hours at 37°C. Consecutively, cells were washed, and resuspended in the DMEM culture medium with high concentration of glucose (Dulbecco's Modified Eagle's Medium, Invitrogen) supplemented with 1% of antibiotics-antimycotics (Invitrogen) and with 1% of sodium pyruvate (Invitrogen), and the cells were seeded in culture slides at a concentration of 10.000 cells per square centimeter. When cells reached confluence, the adherent cells were separated using sterile trypsin at 0,5% (Invitrogen) and they were used among passages 3 and 9. For the assays shown next, tumor cells were seeded on slides at a concentration of 25.000 cells per well. A total of 6 wells containing the tumor cells were used as survival control. […] All the cultures were kept during 48 hours and later on recollected for their analysis.
(§6) Immunohistochemistry techniques. The presence of NK1 receptors was also analyzed using immunohistochemistry techniques. Briefly, a sample of each of the cultures of the cell lines used in the present invention, was centrifuged (5 minutes at 1.500 rpm) and the pellet obtained was dehydrated using increasing concentrations of ethanol and, finally, xylol. Then, said dehydrated samples were embedded in paraffin, creating a block of cells. Such paraffin blocks were cut with a microtome at 5 microns thickness, and were placed on microscope slides adequate to perform immunohistochemistry techniques. Consecutively, they were de-paraffinized by immersing them in xylol, to be finally hydrated using a solution containing decreasing concentrations of ethanol, and finally submerged them into water. […] After this, the samples were left to cool down at room temperature for 10 minutes. The endogenous peroxidase activity was blocked with 3% peroxide of hydrogen for 30 minutes at room temperature. After washing the samples with 0.05 M of Tris buffer, they were incubated with 10% non-immune pork serum at for 30 minutes at room temperature. To analyze the expression of NK1 receptors, the cellular samples were incubated in the presence of anti-NK1 antibodies (S8305, Sigma-Aldrich) diluted 1:1000, overnight at 4°C. Afterwards, the samples were washed in Tris buffer 0.05 M at room temperature. The next step was the addition of Envision System-HRP (Dako) reagents for 30 minutes at room temperature. Then, the samples were washed again in Tris buffer 0.05 M and the immunoreactivity was visualized through light microscopy with a chromogenic solution containing 3,3'-Diaminobenzidine (DAB+; Dako, USA). To differentiate the cell nuclei, they were slightly stained with hematoxylin. As negative control, it was used samples not incubated with the primary antibody anti-NK1, which was replaced by non-immune serum. All the samples were evaluated.
(§7) To value the immunostaining in each of the cases six cuts were performed to be analyzed by the immunohistochemistry technique. In each of the six cuts, it was counted cells in 20 fields (magnification 400x) using an Olympus microscope (model CX31). In each field it was counted the total number of cells and the number of cells presenting immunostaining, calculating afterwards the percentage of cells which presented immunostaining.

[4] = system: Non Hodgkin Lymphoma B (diffuse B cell lymphoma); assay: Inhibition of primary tumor cell cultures vs Kras mutation (Example 2); type: cell-based, human; conditions: Non Hodgkin Lymphoma B (diffuse B cell lymphoma), 100 micromolar
Description: as §5, §2, §3
The percentages of inhibition are expressed in percentage of variation in relation to control ± standard deviation.

[5] = system: Urinary bladder carcinoma (transitional cell carcinoma); assay: as above; type: cell-based, human; conditions: Urinary bladder carcinoma (transitional cell carcinoma), 100 micromolar
Description: as §1, §2, §3, §4

[6] = system: Malignant Fibrous Histiocytoma; assay: Inhibition of primary tumor cell cultures (48 hours) vs NK1 receptor immunostaining (Example 1); type: cell-based; conditions: Homo sapiens, 1 micromolar, read-out: Percentage of inhibition of cell cultures
Description: as §5, §6, §7

Glioma = assay: as above; type: cell-based; conditions: Homo sapiens, 1 micromolar, read-out: Percentage of inhibition of cell cultures
Description: as §5, §6, §7

Endometrium carcinoma = assay: Inhibition of primary tumor cell cultures vs Kras mutation (Example 2); type: cell-based, human; conditions: Endometrium carcinoma, 100 micromolar
Description: (§8) Cell cultures. […] Briefly, small pieces of the tumors were digested into a hyaluronidase solution (Sigma-Aldrich, USA) at a concentration of 1 mg/ml during 15 minutes at 37°C, and then they were treated with 6 mg/ml of collagenase type IV (Invitrogen) during 2 hours at 37°C. Consecutively, cells were washed, and resuspended in the DMEM culture medium with high concentration of glucose (Dulbecco's Modified Eagle's Medium, Invitrogen) supplemented with 1% of antibiotics-antimycotics (Invitrogen) and with 1% of sodium pyruvate (Invitrogen), and the cells were seeded in culture slides at a concentration of 10.000 cells per square centimeter. When cells reached confluence, the adherent cells were separated using sterile trypsin at 0,5% (Invitrogen) and they were used among passages 3 and 9. For the assays shown next, tumor cells were seeded on slides at a concentration of 25.000 cells per well. A total of 6 wells containing the tumor cells were used as survival control. […] All the cultures were kept during 48 hours and later on recollected for their analysis.
as §2, §3, §4

[7] = system: Colon carcinoma (Adenocarcinoma); assay: as above; type: cell-based, human; conditions: Colon carcinoma (Adenocarcinoma), 100 micromolar
Description: as §5, §2, §3, §4

Non Hodgkin Lymphoma B = assay: Inhibition of primary tumor cell cultures (48 hours) vs NK1 receptor immunostaining (Example 1); type: cell-based; conditions: Homo sapiens, 1 micromolar, read-out: Percentage of inhibition of cell cultures
Description: as §5, §6, §7

[8] = system: Ovarian carcinoma (Adenocarcinoma); assay: Inhibition of primary tumor cell cultures vs Kras mutation (Example 2); type: cell-based, human; conditions: Ovarian carcinoma (Adenocarcinoma), 100 micromolar
Description: as §8, §2, §3, §4

Glioma (astrocytoma) = assay: as above; type: cell-based, human; conditions: Glioma (astrocytoma), 100 micromolar
Description: as §5, §2, §3, §4

Colon carcinoma = assay: Inhibition of primary tumor cell cultures (48 hours) vs NK1 receptor immunostaining (Example 1); type: cell-based; conditions: Homo sapiens, 1 micromolar, read-out: Percentage of inhibition of cell cultures
Description: as §5, §6, §7

Burkitt Lymphoma [9] = assay: Inhibition of primary tumor cell cultures vs Kras mutation (Example 2); type: cell-based, human; conditions: Burkitt Lymphoma, 100 micromolar
Description: as §5, §2, §3, §4

Leukemia B = assay: Inhibition of primary tumor cell cultures (48 hours) vs NK1 receptor immunostaining (Example 1); type: cell-based; conditions: Homo sapiens, 1 micromolar, read-out: Percentage of inhibition of cell cultures
Description: as §5, §6, §7

Ewing Sarcoma = assay: as above; type: cell-based; conditions: Homo sapiens, 1 micromolar, read-out: Percentage of inhibition of cell cultures
Description: as §5, §6, §7

[10] = Cases with Kras non-mutated (wild type)
[11] = NK1 receptor immunostaining Group 1 (less than 20% of the cells)
[12] = NK1 receptor immunostaining Group 2 (20-80% of the cells)
[13] = NK1 receptor immunostaining Group 3 (more than 80% of the cells)
[14] = NK1 receptor immunostaining Intensity grade 1
[15] = NK1 receptor immunostaining Intensity grade 2
[16] = NK1 receptor immunostaining Intensity grade 3

Cc1cc(F)ccc1[C@H]1CNCCN1C(=O)N(C)[C@H](C)c1cc(C(F)(F)F)cc(C(F)(F)F)c1 [Vestipitant]
Percentage of inhibition of cell cultures ([1]; Cases with Kras mutated): 24±5 percentage | Percentage of inhibition of cell cultures [1, 10]: 96±6 percentage | Percentage of inhibition of cell cultures ([2]; Cases with Kras mutated): 25±3 percentage | Percentage of inhibition of cell cultures [2, 10]: 97±4 percentage | inhibition at 1 µM (Burkitt Lymphoma [3]; [11]): 12 ± 3% | inhibition at 1 µM (Burkitt Lymphoma [3]; [12]): 45 ± 3% | inhibition at 1 µM (Burkitt Lymphoma [3]; [13]): 92 ± 4% | inhibition at 1 µM (Burkitt Lymphoma [3]; [14]): 15 ± 3% | inhibition at 1 µM (Burkitt Lymphoma [3]; [15]): 47 ± 5% | inhibition at 1 µM (Burkitt Lymphoma [3]; [16]): 92 ± 6% | Percentage of inhibition of cell cultures ([4]; Cases with Kras mutated): 24±4 percentage | Percentage of inhibition of cell cultures [4, 10]: 97±6 percentage | Percentage of inhibition of cell cultures ([5]; Cases with Kras mutated): 25±5 percentage | Percentage of inhibition of cell cultures [5, 10]: 95±6 percentage | inhibition at 1 µM [6, 11]: 15 ± 4% | inhibition at 1 µM [6, 12]: 46 ± 4% | inhibition at 1 µM [6, 13]: 91 ± 5% | inhibition at 1 µM [6, 14]: 17 ± 3% | inhibition at 1 µM [6, 15]: 48 ± 4% | inhibition at 1 µM [6, 16]: 91 ± 5% | inhibition at 1 µM (Glioma; [11]): 15 ± 4% | inhibition at 1 µM (Glioma; [12]): 45 ± 4% | inhibition at 1 µM (Glioma; [13]): 92 ± 4% | inhibition at 1 µM (Glioma; [14]): 19 ± 3% | inhibition at 1 µM (Glioma; [15]): 48 ± 5% | inhibition at 1 µM (Glioma; [16]): 92 ± 3% | Percentage of inhibition of cell cultures (Endometrium carcinoma; Cases with Kras mutated): 24±6 percentage | Percentage of inhibition of cell cultures (Endometrium carcinoma; [10]): 95±4 percentage | Percentage of inhibition of cell cultures ([7]; Cases with Kras mutated): 33±5 percentage | Percentage of inhibition of cell cultures [7, 10]: 96±5 percentage | inhibition at 1 µM (Non Hodgkin Lymphoma B; [11]): 14 ± 3% | inhibition at 1 µM (Non Hodgkin Lymphoma B; [12]): 45 ± 5% | inhibition at 1 µM (Non Hodgkin Lymphoma B; [13]): 93 ± 5% | inhibition at 1 µM (Non Hodgkin Lymphoma B; [14]): 16 ± 4% | inhibition at 1 µM (Non Hodgkin Lymphoma B; [15]): 47 ± 5% | inhibition at 1 µM (Non Hodgkin Lymphoma B; [16]): 93 ± 4% | Percentage of inhibition of cell cultures ([8]; Cases with Kras mutated): 27±5 percentage | Percentage of inhibition of cell cultures [8, 10]: 96±6 percentage | Percentage of inhibition of cell cultures (Glioma (astrocytoma); Cases with Kras mutated): 25±3 percentage | Percentage of inhibition of cell cultures (Glioma (astrocytoma); [10]): 97±5 percentage | inhibition at 1 µM (Colon carcinoma; [11]): 12 ± 4% | inhibition at 1 µM (Colon carcinoma; [12]): 45 ± 3% | inhibition at 1 µM (Colon carcinoma; [13]): 91 ± 2% | inhibition at 1 µM (Colon carcinoma; [14]): 18 ± 5% | inhibition at 1 µM (Colon carcinoma; [15]): 46 ± 4% | inhibition at 1 µM (Colon carcinoma; [16]): 91 ± 5% | Percentage of inhibition of cell cultures (Burkitt Lymphoma [9]; Cases with Kras mutated): 24±3 percentage | Percentage of inhibition of cell cultures (Burkitt Lymphoma [9]; [10]): 95±3 percentage | inhibition at 1 µM (Leukemia B; [11]): 16 ± 5% | inhibition at 1 µM (Leukemia B; [12]): 47 ± 5% | inhibition at 1 µM (Leukemia B; [13]): 92 ± 5% | inhibition at 1 µM (Leukemia B; [14]): 17 ± 2% | inhibition at 1 µM (Leukemia B; [15]): 47 ± 3% | inhibition at 1 µM (Leukemia B; [16]): 92 ± 4% | inhibition at 1 µM (Ewing Sarcoma; [11]): 16 ± 3% | inhibition at 1 µM (Ewing Sarcoma; [12]): 46 ± 4% | inhibition at 1 µM (Ewing Sarcoma; [13]): 90 ± 6% | inhibition at 1 µM (Ewing Sarcoma; [14]): 16 ± 4%
